Biological target: USP19 (Homo sapiens (Human), UniProt O94966)
Experiment: USP19 activity assay (fluorescence polarisation, Ubiquitin-Lys-TAMRA substrate)
Assay type: biochemical
Details: full-length USP19 2.5 nM, 30 min pre-incubation, Ub substrate 500 nM; average of at least two duplicate experiments

Chain of USP19 (O94966 whole entry): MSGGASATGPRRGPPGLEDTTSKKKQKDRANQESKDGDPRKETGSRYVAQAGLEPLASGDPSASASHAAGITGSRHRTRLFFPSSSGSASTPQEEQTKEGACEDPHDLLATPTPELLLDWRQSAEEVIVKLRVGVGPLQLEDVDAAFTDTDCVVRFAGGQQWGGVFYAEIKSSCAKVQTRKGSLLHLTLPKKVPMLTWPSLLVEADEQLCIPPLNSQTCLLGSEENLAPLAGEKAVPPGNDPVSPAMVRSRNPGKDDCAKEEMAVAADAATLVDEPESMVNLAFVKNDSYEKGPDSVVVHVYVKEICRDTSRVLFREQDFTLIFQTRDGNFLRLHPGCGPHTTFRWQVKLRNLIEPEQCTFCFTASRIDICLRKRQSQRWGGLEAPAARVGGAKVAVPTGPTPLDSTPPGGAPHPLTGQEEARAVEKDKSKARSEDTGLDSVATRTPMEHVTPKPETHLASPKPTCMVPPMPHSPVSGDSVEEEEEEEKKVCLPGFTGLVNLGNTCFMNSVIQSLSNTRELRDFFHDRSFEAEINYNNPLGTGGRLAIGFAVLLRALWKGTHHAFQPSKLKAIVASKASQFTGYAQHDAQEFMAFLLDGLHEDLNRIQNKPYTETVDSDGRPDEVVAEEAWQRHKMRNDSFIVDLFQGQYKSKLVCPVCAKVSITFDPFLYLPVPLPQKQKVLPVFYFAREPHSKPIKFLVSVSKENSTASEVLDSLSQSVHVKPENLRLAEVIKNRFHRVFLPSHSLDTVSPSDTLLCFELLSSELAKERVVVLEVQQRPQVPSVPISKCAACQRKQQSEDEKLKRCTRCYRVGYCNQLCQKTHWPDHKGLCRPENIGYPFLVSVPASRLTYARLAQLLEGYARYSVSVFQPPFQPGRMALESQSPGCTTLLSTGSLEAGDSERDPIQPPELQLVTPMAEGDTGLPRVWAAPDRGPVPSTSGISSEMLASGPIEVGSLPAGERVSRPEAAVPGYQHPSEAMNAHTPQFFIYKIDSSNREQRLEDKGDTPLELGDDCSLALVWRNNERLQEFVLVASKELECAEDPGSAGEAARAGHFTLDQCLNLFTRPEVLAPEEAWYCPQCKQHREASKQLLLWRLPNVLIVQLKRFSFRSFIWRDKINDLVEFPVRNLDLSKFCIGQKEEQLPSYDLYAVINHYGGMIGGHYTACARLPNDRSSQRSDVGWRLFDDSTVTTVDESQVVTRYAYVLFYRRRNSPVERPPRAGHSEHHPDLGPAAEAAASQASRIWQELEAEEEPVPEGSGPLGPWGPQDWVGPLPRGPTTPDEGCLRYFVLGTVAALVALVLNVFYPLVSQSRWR

IC50 [µM] | Structure (SMILES)
5 to 50 | C[C@H](CC(=O)N1C[C@H]2CC[C@@H](C1)C2(O)Cn1cnc(-c2ccccc2F)cc1=O)c1ccccc1 (stereo partly shown) [Example 60]
5 to 50 | COc1ccccc1-c1cc(=O)n(CC2(O)CCN(C(=O)C[C@@H](C)c3ccccc3)CC2)cn1 [Example 17, (R)-3-((4-Hydroxy-1-(3-phenylbutanoyl)piperidin-4-yl)methyl)-6-(2-methoxyphenyl)pyrimidin-4(3H)-one]
0.5 to 5 | C[C@H](CC1CCCCC1)C(=O)N1CCC(O)(Cn2cnc(-c3cncnc3)cc2=O)C(C)(C)C1 (stereo partly drawn) [Example 130, 1-((1-((R)-3-Cyclohexyl-2-methylpropanoyl)-4-hydroxy-3,3-dimethylpiperidin-4-yl)methyl)-[4,5′-bipyrimidin]-6(1H)-one]
5 to 50 | C[C@H](CC(=O)N1CCC(O)(Cn2nc(-c3ccccc3)c(-c3ccccc3)cc2=O)CC1)c1ccccc1 [Example 19, (R)-2-((4-Hydroxy-1-(3-phenylbutanoyl)piperidin-4-yl)methyl)-5,6-diphenylpyridazin-3(2H)-one]
5 to 50 | C[C@H](CC(=O)N1CCC(O)(Cn2cc(N3CCCC3=O)c(-c3ccccc3)cc2=O)CC1)c1ccccc1 [Example 55, (R)-1-((4-Hydroxy-1-(3-phenylbutanoyl)piperidin-4-yl)methyl)-5-(2-oxopyrrolidin-1-yl)-4-phenylpyridin-2(1H)-one]
0.5 to 5 | CN(C)C(=O)c1cn(CC2(O)CCN(C(=O)C[C@H](c3ccccc3)C(F)F)CC23CCCC3)c(=O)cc1-c1ccccc1 (stereo partly drawn) [Example 181, 1-((7-((R)-4,4-Difluoro-3-phenylbutanoyl)-10-hydroxy-7-azaspiro[4.5]decan-10-yl)methyl)-N,N-dimethyl-6-oxo-4-phenyl-1,6-dihydropyridine-3-carboxamide]
50 to 250 | C[C@H](CC(=O)N1CCC(O)(Cn2cc(Br)c(-c3ccccc3)cc2=O)CC1)c1ccccc1 [Example 1, (R)-5-Bromo-1-((4-hydroxy-1-(3-phenylbutanoyl)piperidin-4-yl)methyl)-4-phenylpyridin-2(1H)-one]
0.5 to 5 | CN(C)C(=O)c1cn(CC2(O)CCN(C(=O)C3CCC(C(F)(F)F)C3)CC23CCCC3)c(=O)cc1-c1ccccc1 (stereo not shown) [Example 196, 1-((10-Hydroxy-7-(3-(trifluoromethyl)cyclopentane-1-carbonyl)-7-azaspiro[4.5]decan-10-yl)methyl)-N,N-dimethyl-6-oxo-4-phenyl-1,6-dihydropyridine-3-carboxamide]
0.5 to 5 | C[C@H](CC(=O)N1CCC(O)(Cn2cc(C(=O)N3CCCCC3)c(-c3ccccc3)cc2=O)CC1)c1ccccc1 [Example 88, (R)-1-((4-Hydroxy-1-(3-phenylbutanoyl)piperidin-4-yl)methyl)-4-phenyl-5-(piperidine-1-carbonyl)pyridin-2(1H)-one]
5 to 50 | C=C1CCC(C)(C(=O)N2CCC(O)(Cn3cnc(-c4ccccc4F)cc3=O)CC2)CC1 [Example 56, 6-(2-Fluorophenyl)-3-((4-hydroxy-1-(1-methyl-4-methylenecyclohexanecarbonyl)piperidin-4-yl)methyl)pyrimidin-4(3H)-one]
0.5 to 5 | C[C@H](CC1CCCCC1)C(=O)N1CCC(O)(Cn2cc(C(=O)N(C)C)c(-c3ccccc3)cc2=O)C2(CCOCC2)C1 (stereo partly drawn) [Example 234, 1-((2-((R)-3-Cyclohexyl-2-methylpropanoyl)-5-hydroxy-9-oxa-2-azaspiro[5.5]undecan-5-yl)methyl)-N,N-dimethyl-6-oxo-4-phenyl-1,6-dihydropyridine-3-carboxamide]
5 to 50 | C[C@H](CC(=O)N1CCC(O)(Cn2cc(C(=O)N(C)Cc3ccccc3)c(-c3ccccc3)cc2=O)CC1)c1ccccc1 [Example 105, (R)—N-Benzyl-1-((4-hydroxy-1-(3-phenylbutanoyl)piperidin-4-yl)methyl)-N-methyl-6-oxo-4-phenyl-1,6-dihydropyridine-3-carboxamide]
5 to 50 | C[C@H](CC1CCCCC1)C(=O)N1CCC(O)(Cn2cnccc2=O)C2(CCCC2)C1 (stereo partly drawn) [Example 134, 3-((7-((R)-3-Cyclohexyl-2-methylpropanoyl)-10-hydroxy-7-azaspiro[4.5]decan-10-yl)methyl)pyrimidin-4(3H)-one]
50 to 250 | CN(C)C(=O)c1cn(CC2(O)CCN(C(=O)C3(CC(F)F)CC3)CC23CCCC3)c(=O)cc1-c1ccccc1 (stereo not shown) [Example 178, 1-((7-(1-(2,2-Difluoroethyl)cyclopropane-1-carbonyl)-10-hydroxy-7-azaspiro[4.5]decan-10-yl)methyl)-N,N-dimethyl-6-oxo-4-phenyl-1,6-dihydropyridine-3-carboxamide]
5 to 50 | C[C@H](CC(=O)N1CCC(O)(Cn2cc(C(=O)NCCO)c(-c3ccccc3)cc2=O)CC1)c1ccccc1 [Example 115, (R)-1-((4-Hydroxy-1-(3-phenylbutanoyl)piperidin-4-yl)methyl)-N-(2-hydroxyethyl)-6-oxo-4-phenyl-1,6-dihydropyridine-3-carboxamide]
< 0.5 | C[C@H](CC1CC1)C(=O)N1CCC(O)(Cn2cc(C(=O)N(C)C)c(-c3ccccc3)cc2=O)C2(CCCC2)C1 (stereo partly drawn) [Example 149, 1-((7-((R)-3-Cyclopropyl-2-methylpropanoyl)-10-hydroxy-7-azaspiro[4.5]decan-10-yl)methyl)-N,N-dimethyl-6-oxo-4-phenyl-1,6-dihydropyridine-3-carboxamide]
0.5 to 5 | C[C@H](CC(=O)N1CCC(O)(Cn2cc(C(=O)N3CCCC3)c(-c3ccccc3)cc2=O)CC1)c1ccccc1 [Example 63, (R)-1-((4-Hydroxy-1-(3-phenylbutanoyl)piperidin-4-yl)methyl)-4-phenyl-5-(pyrrolidine-1-carbonyl)pyridin-2(1H)-one]
5 to 50 | C[C@H](CC1CCCCC1)C(=O)N1CCC(O)(Cn2cnc(-c3ccccc3F)cc2=O)CC1 [Example 39, (R)-3-((1-(3-Cyclohexyl-2-methylpropanoyl)-4-hydroxypiperidin-4-yl)methyl)-6-(2-fluorophenyl)pyrimidin-4(3H)-one]
0.5 to 5 | Cc1cccc(-c2cc(=O)n(CC3(O)CCN(C(=O)C[C@@H](C)c4ccccc4)CC3)cc2C(=O)N(C)C(C)C)c1 [Example 102, (R)-1-((4-Hydroxy-1-(3-phenylbutanoyl)piperidin-4-yl)methyl)-N-isopropyl-N-methyl-6-oxo-4-(m-tolyl)-1,6-dihydropyridine-3-carboxamide]
< 0.5 | C[C@H](CC1CCCCC1)C(=O)N1CC[C@@](O)(Cn2cc(C(=O)N3CCNCC3)c(C3CC3)cc2=O)C2(CCCC2)C1 [Example 233, 1-(((S)-7-((R)-3-Cyclohexyl-2-methylpropanoyl)-10-hydroxy-7-azaspiro[4.5]decan-10-yl)methyl)-4-cyclopropyl-5-(piperazine-1-carbonyl)pyridin-2(1H)-one]
5 to 50 | C[C@H](CC(=O)N1CCC(O)(Cn2cc(C(=O)N(C)C)c(-c3ccccc3)cc2=O)CC1)c1ccccc1 [Example 95, (R)-1-((4-Hydroxy-1-(3-phenylbutanoyl)piperidin-4-yl)methyl)-N,N-dimethyl-6-oxo-4-phenyl-1,6-dihydropyridine-3-carboxamide]
5 to 50 | C[C@H](CC(=O)N1CCC(O)(Cn2cc(-c3cccnc3)c(-c3ccccc3)cc2=O)CC1)c1ccccc1 [Example 99, (R)-1-((4-Hydroxy-1-(3-phenylbutanoyl)piperidin-4-yl)methyl)-4-phenyl-[3,3′-bipyridin]-6(1H)-one]
